Test results from paper PMC6071089 (Nanomaterials, 2018).

Test system: C2C12 cells
Assay: Inhibition of CCPs- and caveolae-mediated endocytosis of CK2.3-Qdots
Assay type: cell-based, murine
Details: then 100 nM CK2.3-Qdots 18 h, confocal
Protocol: C2C12 cells were grown in 35 mm dishes containing 18 mm × 18 mm square coverslips at a cell density of 1 × 10^4 cells/well for two days in DMEM media containing 20% FBS and 1% penicillin/streptomycin and at the end of the 2nd day, cells were serum starved with phenol-free DMEM media supplemented with 1% penicillin/streptomycin, but without FBS for 18 h. Next, we used chlorpromazine from Cayman chemical (Ann Arbor, MI, USA) to inhibit CCPs-mediated endocytosis. […] C2C12 cells were treated with 5 μm of Chlorpromazine in DMEM media supplemented with 10% FBS and 1% penicillin/streptomycin for 24 h [41]. […] C2C12 cells were treated with 50 μm of Lovastatin in phenol-free DMEM without FBS and supplemented only with 1% penicillin/streptomycin for 24 h [41, 42]. […] C2C12 cells were treated with 100 μm of methyl-β-cyclodextrin in phenol-free DMEM without FBS and supplemented only with 1% penicillin/streptomycin for 24 h [43]. […] After 18 h, cells were fixed using 4.4% (w/v) paraformaldehyde purchased from Sigma-Aldrich (St. Louis, MO, USA) for 20 min and permeabilized with 0.05% (w/v) saponin from Sigma-Aldrich (St. Louis, MO, USA) diluted in diH2O, for 10 min on ice. Later the nucleus was stained using 100 μL (0.5 ng/mL) of Hoechst (catalog # 23491-45-4) from Sigma-Aldrich (St. Louis, MO, USA). The coverslips were then mounted on the slides using Airvol [38]. Slides were imaged using Zeiss LSM 710 at 63×/1.4 Plan-Apochromat oil objective.
To inhibit both endocytic pathways we used methyl-β-cyclodextrin (MβCD) [60]. […] C2C12 cells were either left unstimulated or stimulated with the pharmacological inhibitors for 24 h. […] Cells were fixed, and images were collected using a confocal microscope (Figure 11).

## CN(C)CCCN1c2ccccc2Sc2ccc(Cl)cc21 [chlorpromazine, Chlorpromazine]
Chlorpromazine 5 μm, 24 h pre-treatment (CCP inhibitor)
  effect of inhibitor on uptake of CK2.3-Qdots: did not affect the uptake

## Methyl-β-cyclodextrin [MβCD]
methyl-β-cyclodextrin 100 μm, 24 h pre-treatment (CCP and caveolae inhibitor)
  effect of inhibitor on uptake of CK2.3-Qdots: prevented CK2.3-Qdot®s from entering C2C12 cells

## CC[C@H](C)C(=O)O[C@H]1C[C@@H](C)C=C2C=C[C@H](C)[C@H](CC[C@@H]3C[C@@H](O)CC(=O)O3)[C@H]21 [lovastatin, Lovastatin]
Lovastatin 50 μm, 24 h pre-treatment (caveolae inhibitor)
  effect of inhibitor on uptake of CK2.3-Qdots: prevented CK2.3-Qdot®s from entering C2C12 cells
